Six compounds from ChEMBL document CHEMBL1125591, “Synthesis and antidopaminergic activity of some 3-(aminomethyl)tetralones as analogues of butyrophenone” (J Med Chem, 1991) can be followed below.

For series [1], the species on record is Rattus norvegicus. Briefly: Compound was evaluated for the pA2 values against Norepinephrine (NE)-induced contraction of isolated rat vas deferens. In kind it is functional. The settings on record: read-out: pA2 (converted).
A further series is filed under the species Mus musculus. Briefly: Compound was evaluated for the effective dose that causes lethality in aggregated mice (group toxicity antagonism). In kind it is organism-based. The settings on record: in vivo.
The species entered for series [2] is Rattus norvegicus. Briefly: Compound was evaluated for the pA2 values against Dopamine (DA)-induced contraction of isolated rat vas deferens. In kind it is functional, organism-based. Particulars: read-out: pA2 (converted).
For a further series, the target named is D(1A) dopamine receptor (Rattus norvegicus, UniProt P18901). Briefly: Compound was evaluated for its affinity (pKi) to inhibit [3H]SCH-23390 binding to the dopamine receptor D1.
A further series concerns the target D(2) dopamine receptor (Rattus norvegicus, UniProt P61169). In words: Compound was evaluated for its affinity (pKi) to inhibit [3H]spiperone binding to the dopamine receptor D2.

SMILES strings stand for the structures. pKi: −log10 of the molar value.

Sequence of D(1A) dopamine receptor (P18901 whole entry): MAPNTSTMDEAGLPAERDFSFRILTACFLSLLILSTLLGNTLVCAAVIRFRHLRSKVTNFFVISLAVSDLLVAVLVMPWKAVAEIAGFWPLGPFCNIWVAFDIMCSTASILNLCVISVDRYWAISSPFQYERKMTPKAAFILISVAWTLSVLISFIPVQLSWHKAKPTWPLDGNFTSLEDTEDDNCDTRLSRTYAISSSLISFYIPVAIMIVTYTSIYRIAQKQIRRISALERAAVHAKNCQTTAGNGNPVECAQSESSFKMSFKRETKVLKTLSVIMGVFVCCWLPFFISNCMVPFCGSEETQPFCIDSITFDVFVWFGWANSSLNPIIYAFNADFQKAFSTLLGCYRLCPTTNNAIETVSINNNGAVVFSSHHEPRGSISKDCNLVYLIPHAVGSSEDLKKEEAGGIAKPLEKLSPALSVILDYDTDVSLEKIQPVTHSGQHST
Sequence of D(2) dopamine receptor (P61169 whole entry): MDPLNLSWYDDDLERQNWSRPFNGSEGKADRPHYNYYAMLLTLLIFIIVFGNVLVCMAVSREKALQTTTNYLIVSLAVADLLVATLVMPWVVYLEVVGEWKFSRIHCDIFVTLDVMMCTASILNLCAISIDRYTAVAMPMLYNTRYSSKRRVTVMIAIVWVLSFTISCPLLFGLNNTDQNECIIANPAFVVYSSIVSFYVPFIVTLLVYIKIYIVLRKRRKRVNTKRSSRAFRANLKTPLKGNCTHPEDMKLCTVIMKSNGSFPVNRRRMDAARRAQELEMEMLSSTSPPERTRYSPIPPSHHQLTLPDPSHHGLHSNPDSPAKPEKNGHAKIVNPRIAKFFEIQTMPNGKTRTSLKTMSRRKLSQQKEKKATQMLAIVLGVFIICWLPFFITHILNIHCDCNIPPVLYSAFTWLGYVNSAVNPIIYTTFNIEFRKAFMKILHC

Take `O=C(CCCN1CCC(O)(c2ccc(Cl)cc2)CC1)c1ccc(F)cc1` [HALOPERIDOL]: the Kb is 102 nM in the series listed under Rattus norvegicus [1] and 39.8 nM in the series filed under Rattus norvegicus [2]. In the series filed under Mus musculus, this compound showed an ED50 of 0.02 mg/kg.
Take `O=C(CCCN1CCN(CC2CC(=O)c3ccccc3C2)CC1)c1ccc(F)cc1` (centres undefined): the results for the Kb in the series listed under Rattus norvegicus [1] and in the series listed under Rattus norvegicus [2] were 178 nM and 53.7 nM, respectively. This compound also gave a pKi on D(1A) dopamine receptor of 6.42.
In the case of `O=C1CC(CN2CCC(O)(c3ccccc3)CC2)Cc2ccccc21` (centres undefined), the pKi at D(2) dopamine receptor was 7.13; at D(1A) dopamine receptor, 6.13.
As for `COc1ccccc1N1CCN(CC2CC(=O)c3ccccc3C2)CC1` (centres undefined), the figures for the Kb in the series listed under Rattus norvegicus [1] and in the series filed under Rattus norvegicus [2] were 174 nM and 66.1 nM, respectively. In the series listed under Mus musculus, this compound returned an ED50 of 0.349 mg/kg. The pKi on D(1A) dopamine receptor was 5.87.
`O=C(CCCN1CCN(CC2CC(=O)c3ccc(F)cc3C2)CC1)c1ccc(F)cc1` (centres undefined) gave an ED50 in the series listed under Mus musculus of 0.053 mg/kg. For the same compound, the pKi was 7.11 on D(2) dopamine receptor and 6.04 at D(1A) dopamine receptor.
Consider `O=C1CC(CN2CCC(C(=O)c3ccc(F)cc3)CC2)Cc2ccccc21` (centres undefined), for which the Kb is 83.2 nM in the series filed under Rattus norvegicus [1] and 35.5 nM in the series listed under Rattus norvegicus [2]. In the series listed under Mus musculus, this compound registered an ED50 of 0.055 mg/kg. At D(1A) dopamine receptor, the pKi is 6.49.
